Results taken from patent publication US11738099B2, “Molecular probes and methods of use” (CASE WESTERN RESERVE UNIVERSITY, priority 2014, dated 2023).
“Also recorded” adds a separate entry of the source. Where a SMILES comes first, the peptide text is derived from it. The star is where a group is joined. X1 = O=C(O)CN1CCN(CC(=O)O)CCN(CC(O)Cn2cc(CCCC(=O)*)nn2)CCN(CC(=O)O)CC1; PEG2 = NCCOCCOCCC(=O)O

Columns and labels:
[1] = tested on: PC-3 human prostate cancer xenograft; assay: MRI of PC-3 xenograft (Example 2); assay type: in vivo, mouse; settings: 0.1 mmol-Gd/kg intravenous
Description: The same contrast agent also works for prostate cancer imaging. We then tested the effectiveness of targeting EDB-FN with the contrast agent for prostate cancer MRI in male nude mice bearing primary PC-3 human prostate cancer xenograft.

[2] = tested on: PC3 prostate tumor xenografts; assay: T1-weighted MRI at 1 Tesla, PC3 tumors (Example 3); assay type: in vivo, mouse
Method: (§1) Male athymic nude mice were purchased from Case Comprehensive Cancer Center (Cleveland, Ohio, USA) and housed in the Animal Core Facility at Case Western Reserve University. All animal experiments were performed in accordance with the animal protocol approved by the CWRU Institutional Animal Care and Use Committee. Athymic nude male mice were subcutaneously injected with 100 μL cell suspension (4×10^7 cells/mL) in matrigel matrix (Corning Bioscience, Corning, N.Y.) to initiate tumors. Mice with tumors of 5-8 mm in diameter were used for imaging studies.
(§2) MR images of tumor bearing mice were acquired on an Aspect M3 small animal MRI scanner (1 Tesla). Mice were placed on a holder with the temperature maintained at 37° C., with isoflurane/oxygen mixture supplied to the mice through a nose cone. A thin catheter filled with PBS was connected to a tail vein of the mice. After mice were placed in the coil, a pilot scan was performed to adjust mice to the proper location in the coil. An axial T1 weighted sequence (TR=500 ms; TE=9 ms; Flip angle=90°; Field of view=3 cm×3 cm; Matrix size=128×128×8; slice thickness=2 mm; interslice distance=1 mm) was then used to acquire the images of the tumors before and 10 min, 20 min and 30 min after contrast injection. Images were exported into DICOM data, which were then processed and analyzed using Matlab (Natick, Mass., USA). The contrast to-noise ratio of tumors in the images were calculated as the difference between tumor mean intensity minus muscle mean intensity, divided by the noise.

[3] = tested on: LNCaP prostate tumor xenografts; assay: T1-weighted MRI at 1 Tesla, LNCaP tumors (Example 3); assay type: in vivo, mouse; settings: 0.1 mmol/kg i.v., up to 30 min
Method: as §1
as §2, with “An axial T1 weighted sequence (TR=500 ms; TE=9 ms; Flip angle=90°; Field of view=3 cm×3 cm; Matrix size=128×128×8; slice thickness=2 mm; interslice distance=1 mm) was then used to acquire the images of the tumors before and 10 min, 20 min and 30 min after contrast injection.” left out

[4] = Relaxivity measurement at 7T in PBS; assay type: physicochemical
Method: To accurately capture T1 maps, a fast T1 mapping method was developed. This accelerated multi-slice T1-mapping method combines a saturation recovery look-locker sequence and spiral k-space sampling^40. The NMR tubes filled with 3.12-50 μM ZD2-Gd(HP-DO3A) were positioned in a mouse coil and scanned with T1-weighted spin echo sequence, cartesian T1-mapping sequence, and spiral T1-mapping sequence. Axial images were acquired. CNR values from the T1-weighted sequence were calculated from signal from the samples subtracting surrounding water signal, and divided by noise. T1 values of the samples were reconstructed by fitting signal change during the acquisition time to the adapted T1-relaxation curve.

[5] = In vitro transmetallation in serum; assay type: in vitro ADME, human; settings: blood plasma containing Cu2+, Ca2+, Zn2+; vs MultiHance and OmniScan
Method: […] The plasma mixtures were transferred to CF-10 centrifugal filters (molecular weight cut-off 10 KDa) and centrifuged at 4,000 rpm and 25° C. for 150 min. During centrifugation, the solution in the upper reservoir was agitated using a pipette every 20 min for the plasma mixtures. The content of metal ions in both the upper reservoir and the filtrates was determined by ICP-OES after appropriate dilution. The degree of transmetallation of the contrast agents with Zn(II) or Cu(II) ions in the plasma was evaluated using the percentage of Zn(II) or Cu(II) ions filtered through the membrane, calculated as Zn(Cu) %=(concentration of Zn(II) or Cu(II) in the filtrates)/(total Zn(II) or Cu(II) concentration before centrifugal filtration)×100. Human serum was used a control.

CC(C)[C@H](NC(=O)[C@@H](NC(=O)CCOCCOCCNC(=O)CCCc1cn(CC(O)CN2CCN(CC(=O)O)CCN(CC(=O)O)CCN(CC(=O)O)CC2)nn1)[C@@H](C)O)C(=O)N[C@@H](CCCNC(=N)N)C(=O)N[C@H](C(=O)N[C@@H](CO)C(=O)N[C@@H](C)C(=O)N[C@@H](CC(=O)O)C(=O)O)[C@@H](C)O (stereo partly drawn) [ZD2-Gd(HP-DO3A)] ({X1-PEG2}-TVRTSAD-OH)
tumor contrast enhancement [1]: robust tumor enhancement for at least 30 min
signal enhancement in PC3 tumors ([2]; 0.1 mmol/kg i.v., up to 30 min, 1 Tesla): Strong signal enhancement
increase of contrast-to-noise ratio (CNR) in PC3 tumors ([2]; 10 min after injection): over two-fold increase
signal enhancement in LNCaP tumors [3]: significantly lower signal enhancement; also recorded: did not produce significant contrast enhancement
T1 relaxivity [4]: 3.7 mM⁻¹ s⁻¹
stability against transmetallation [5]: same high stability as ProHance
